# Measurements published in patent publication US20250339566A1, “INHIBITORS OF FIBROBLAST ACTIVATION PROTEIN” (UNIVERSITEIT ANTWERPEN, priority 2022, published 2025).
# What was measured:
# [1] = Partition coefficient (Log D) of radiotracer; type: physicochemical; conditions: organic solvent / aqueous solution (solvents not named); mean with standard deviation (n=8)
# Method: Radiotracer characterization: To assess the quality and suitability of compound 1 ([^18F]UAMC-4522) for specific applications, such as medical imaging, several parameters were determined. First, the decay-corrected RCY (Radiochemical Yield) was calculated. This indicates the percentage of the desired radioactively labeled molecule after correction for radioactive decay. It is calculated by dividing the amount of radioactively labeled molecule by the total radioactivity, taking into account the time elapsed since radiolabeling. Next, the Apparent Molar Activity (Am) was calculated. This represents the activity of the radiotracer per unit of substance (e.g. per micromole). It is calculated by dividing the activity of the radiotracer by the amount of labeled molecule used. Next, the Radiochemical Purity (RCP) was determined. This indicates the percentage of the radioactively labeled molecule relative to other chemical components or impurities. It is often determined using analytical techniques such as radio-HPLC (High-Performance Liquid Chromatography) or radio-TLC (Thin-Layer Chromatography). Finally, the Partition Coefficient (Log D) was calculated. This reflects the distribution of a substance between two solvents with different polarities. The Log D value represents the ratio of the concentrations of the substance in an organic solvent and an aqueous solution. […]
# [2] = Biodistribution in control animals (FIG. 3); type: in vivo; conditions: FIG. 3, normal CD1 nude mice, 15, 30, 60 min p.i.
# Method: (§1) For all in vivo studies the following experimental procedure was used. Mice (7- to 8-week old female CD1−/− nude mice) were injected with 5.1-7.4 MBq of compound 1 (n=9) via the lateral tail vein. At 15, 30, 60 (n=3 for each time point) post-radiotracer injection (p.i.) the blood was collected in EDTA-coated tubes through cardiac puncture and the mice were euthanized by cervical dislocation.
# The uptake levels of the tracers were expressed as percentage of the injected dose per gram (% ID g^−1).
# FIG. 3 summarizes the tissue biodistribution (% injected dose/gram of tissue) of [^18F]UAMC-4522 (compound 1) and of compound 0 in normal CD1 nude mice after 15, 30, and 60 min p.i. (n=3 per timepoint).
# U87MG xenografts [3] = assay: Ex vivo biodistribution in tumor-bearing animals; parameters: species or system mice; conditions: 60 min p.i.
# Method: In accordance with the PET results, the biodistribution study confirmed the high and specific tumor uptake of all FAP radioligands at 60 min post-injection (p.i.) (Table 6).
# U87MG xenografts [4] = conditions: mouse
# Method: Dynamic whole-body PET images were acquired during 60 min. The average tumor or muscle activity per volume was obtained from the PET images and the decay-corrected time-activity curves (TACs) were extracted. At the end of the scans, the organs and tissues were harvested, weighed and the radioactivity in the samples was measured using an automatic γ-counter.
# Human recombinant PREP = target: T1, Human recombinant PREP (Homo sapiens, UniProt P48147); assay: PREP IC50 measurement (N-succinyl-Gly-Pro-AMC); type: biochemical; conditions: FIG. 1, Compound 1 versus Compound 0
# T1 construct: made in house; host or cells: E. coli BL21(DE3)
# T1 sequence (P48147 1-710): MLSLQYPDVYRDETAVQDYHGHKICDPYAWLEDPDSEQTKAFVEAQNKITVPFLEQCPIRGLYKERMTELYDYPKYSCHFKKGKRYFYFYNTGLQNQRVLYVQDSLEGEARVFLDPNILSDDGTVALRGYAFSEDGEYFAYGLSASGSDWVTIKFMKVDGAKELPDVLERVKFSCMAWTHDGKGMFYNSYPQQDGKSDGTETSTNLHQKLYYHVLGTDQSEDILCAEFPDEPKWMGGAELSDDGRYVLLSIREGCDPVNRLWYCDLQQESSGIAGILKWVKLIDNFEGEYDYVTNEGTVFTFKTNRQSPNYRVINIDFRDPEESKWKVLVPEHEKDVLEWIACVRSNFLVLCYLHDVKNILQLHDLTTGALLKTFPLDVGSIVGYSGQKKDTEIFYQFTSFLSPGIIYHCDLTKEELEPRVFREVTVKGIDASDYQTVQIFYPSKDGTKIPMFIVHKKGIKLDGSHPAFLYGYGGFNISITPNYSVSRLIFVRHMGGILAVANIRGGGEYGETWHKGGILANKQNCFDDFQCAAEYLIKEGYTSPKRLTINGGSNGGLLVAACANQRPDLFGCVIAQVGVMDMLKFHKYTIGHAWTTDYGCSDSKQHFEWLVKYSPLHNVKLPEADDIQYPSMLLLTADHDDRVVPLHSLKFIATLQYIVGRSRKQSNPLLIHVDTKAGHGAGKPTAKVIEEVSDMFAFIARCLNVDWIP
# Source text: Used Enzymes in these Assays: • A gateway-entry clone for human FAP was purchased from Dharmacon (Accession number DQ891423) and the human secretion signal was replaced with the HoneyBee mellitin secretion signal. For transfection and expression of FAP in Sf9 insect cells the C-terminal BaculoDirect kit from LifeTechnologies was used. The enzyme was purified from the supernatant of the insect cells using immobilized Ni-chelating chromatography (GE healthcare, Diegem, Belgium), followed by anion-exchange chromatography using a 1 mL HiTrap Q and size exclusion chromatography using the Superdex 200 column (GE healthcare, Diegem, Belgium). • Human recombinant PREP was expressed in BL21(DE3) cells and purified using immobilized Co-chelating chromatography (GE healthcare), followed by anion-exchange chromatography on a 1 ml Mono Q column (GE healthcare). • DPP4 was purified from human seminal plasma. • Gateway-entry clones for human DPP8 and DPP9 were purchased from Dharmacon (Accession numbers DQ891733 and DQ892325 respectively). For transfection and expression of DPP8 and DPP9 in Sf9 insect cells the N-terminal BaculoDirect kit from LifeTechnologies was used. The enzymes were purified using immobilized Ni-chelating chromatography (GE healthcare, Diegem, Belgium), followed by anion-exchange chromatography using a 1 mL Mono Q (GE healthcare, Diegem, Belgium). • Recombinant human DPP2 was purchased from R&D.
# Eight concentrations of inhibitors/probe were tested. The final DMSO concentration was kept constant during the experiment to exclude any effects. Inhibitors were pre-incubated with the enzyme for 15 minutes at 37° C., afterwards the substrate was added and the velocities of AMC release were measured kinetically at λex=380 nm, λem=465 nm for at least 10 minutes at 37° C. […] Eight concentrations of inhibitors were tested. The final DMSO concentration in kept constant during the experiment to exclude any effects. Inhibitors were pre-incubated with the enzyme for 15 minutes at 37° C., afterwards the substrate was added and the velocities of AMC release were measured kinetically at λex=380 nm, λem=465 nm for at least 10 minutes at 37° C. […] At least eight different inhibitor concentrations were used. The final DMSO concentration is kept constant during the experiment to exclude any effects. Inhibitors were pre-incubated with the enzyme for 15 minutes at 37° C., afterwards the substrate was added and the velocities of pNA release were measured kinetically at 405 nm for at least 10 minutes at 37° C. Measurements were done on the Infinite 200 (Tecan Group Ltd.) and the Magellan software was used to process the data. • For DPP2: Initial velocity measurements were carried out. Lys-Ala-pNA was used as the substrate at a concentration of 1 mM at pH 5.5 (100 mM NaAc, 10 mM EDTA, 14 μg/mL aprotinin). Inhibitors were tested at one concentration, 5 μM, being the final concentration in the well. Inhibitors were pre-incubated with the enzyme for 15 minutes at 37° C., afterwards the substrate was added and the velocities of pNA release were measured kinetically at 405 nm for at least 10 minutes at 37° C. Measurements were done on the Infinite 200 (Tecan Group Ltd.) and the Magellan software was used to process the data.
# [5] = In vivo stability of radiotracer in plasma; parameters: species or system CD1 nude mice; conditions: for Mean % intact radiotracer ± SD: CD1 nude mice
# Method: as §1
# From the collected blood, the plasma fraction was obtained by centrifugation at 4,000 g for 7 min, and mixed (200 μL) with an equal volume of cold MeCN to enable sample deproteination. After vigorously vortexing and γ-counting, the samples were centrifuged at 4000 g for 4 min, and the supernatant and the pellet were γ-counted separately to determine the amount of recovered radioactivity in the organic phase. The radioactive contents of the supernatant were analyzed by analytical radio-HPLC. The eluate fractions were collected every 30 s and counted for radioactivity in an automated γ-counter.
# [6] = Metabolic stability comparison (FIG. 2); conditions: FIG. 2, Compound 1 versus Compound 0
# [7] = female, CD1-/- nude, in vivo, 60 min
structure (smiles),measurement,setting,value
[2H]C([2H])([18F])[N+](C)(C)CCCOc1ccc2nccc(C(=O)NCC(=O)N3CC(F)(F)C[C@H]3C#N)c2c1 [Compound 1],logD,[1],-1.77 ± 0.01
same,biodistribution / excretion profile (in words),[2],biodistribution profile including urinary excretion
same,Tumor (% ID/g),U87MG xenografts [3],10.98 ± 1.73 % ID/g
same,Tumor-to-blood,U87MG xenografts [3],6.35 ± 1.08
same,Tumor-to-liver,U87MG xenografts [3],4.77 ± 0.58
same,Tumor-to-muscle,U87MG xenografts [3],6.54 ± 1.36
same,Tumor-to-small intestine,U87MG xenografts [3],2.43 ± 0.12
same,tumor uptake (PET),U87MG xenografts [4]; [7],10.16±2.22 % ID/mL
same,uptake in the muscle (PET),U87MG xenografts [4]; [7],2.20±0.33 % ID/mL
same,uptake into tumor tissue in vivo (in words),U87MG xenografts [4],significantly higher uptake
same,nonspecific tumor uptake (in words),U87MG xenografts [4]; in vivo,lower nonspecific tumor uptake
same,tumor time-activity curve (in words),U87MG xenografts [4]; in vivo,early peak uptake in the tumor followed by retention or slight increase in the tumor
same,"tumor uptake after pre-injection of UAMC-1110 (blocking study, in words)",U87MG xenografts [4]; in vivo,decrease in tumor uptake
same,selectivity for FAP with respect to PREP (in words),Human recombinant PREP,significantly higher selectivity for FAP
same,Mean % intact radiotracer ± SD,[5]; 15 min p.i.,74.84 ± 6.62%
same,Mean % intact radiotracer ± SD,[5]; 30 min p.i.,60.23 ± 3.60%
same,Mean % intact radiotracer ± SD,[5]; 60 min p.i.,56.47 ± 7.81%
same,Mean % intact radiotracer ± SD,[5]; time 0 min,99.12 ± 0.51%
same,in vivo stability (in words),[5]; compared with the control [68Ga]Ga-DOTA-FAPI-04,significantly higher
same,metabolic stability (in words),[6],significantly higher metabolic stability
